In the supplement of paper PMC10307832:

The cell lines below were run with CC1=C(N=C(N=C1N)[C@H](CC(=O)N)NC[C@@H](C(=O)N)N)C(=O)N[C@@H]([C@H](C2=CN=CN2)OC3C(C(C(C(O3)CO)O)O)OC4C(C(C(C(O4)CO)O)OC(=O)N)O)C(=O)N[C@H](C)[C@H]([C@H](C)C(=O)N[C@@H]([C@@H](C)O)C(=O)NCCC5=NC(=CS5)C6=NC(=CS6)C(=O)NCCC[S+](C)C)O [Bleomycin] + NC(=O)Nc1cc(-c2cccc(F)c2)sc1C(=O)N[C@H]1CCCNC1 [AZD7762] (partner 0.2 µM) (assay: relative viability (nuclei count vs DMSO), 5 days (fraction); higher = more cells survive). Conditions: first compound 1 µM; main component drawn.
Summary of the method: (§1)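 A single step with final 0.05% Triton X-100, 1% formaldehyde and 1 ug/ml Hoechst fixed the cells and stained nuclei 5 days after treatment. Lung cancer cell lines in 1536-well plates had been treated by pin tool the day after seeding with one drug alone or a fixed anchor-drug dose plus five library-drug doses (not always all listed) in √10 steps, and nuclei were counted on 4× images. Relative viability is the ratio of nuclei in treated wells to nuclei in vehicle wells, taken as the median of duplicate plates.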
For EPLC-272H, the relative viability was 0.112. Cell Line NCI-H23 has a relative viability of 0.119.

These cell lines were tested with COc1cc([C@@H]2c3cc4c(cc3[C@@H](O[C@@H]3O[C@@H]5CO[C@@H](C)O[C@H]5[C@H](O)[C@H]3O)[C@H]3COC(=O)[C@H]23)OCO4)cc(OC)c1O [Etoposide] + Cc1nc(NC(=O)N2CCC[C@H]2C(N)=O)sc1-c1ccnc(C(C)(C)C(F)(F)F)c1 [Alpelisib] (partner 2 µM) in the same assay as above. Conditions: first compound 0.01 µM.
Summary of the method: as §1
In the case of LK-2, the relative viability is reported as 1.01. NCI-H2126 showed a relative viability of 0.75. For H3255, the relative viability was 0.606. Work on LOU-NH91 yielded a relative viability of 0.7. NCI-H2170 was tested, and the relative viability was 0.65. Work on NCI-H3122 yielded a relative viability of 0.748. HOP-62 was tested, and the relative viability was 0.995. LU99A showed a relative viability of 0.522. For BEN, the relative viability was 0.841. With HARA the relative viability was 0.649. HCC-78 gave a relative viability of 0.316. With NCI-H441 the relative viability was 0.473. A-427 showed a relative viability of 1.07. In the case of NCI-H460, the relative viability is reported as 0.479. Cell Line NCI-H727 has a relative viability of 0.616. NCI-H1734 showed a relative viability of 0.698. In the case of NCI-H2405, the relative viability is reported as 0.714. Cell Line NCI-H1395 has a relative viability of 1.02. 201T was tested, and the relative viability was 1.02. Cell Line NCI-H1915 has a relative viability of 0.999. For HCC-827, the relative viability was 0.967. LXF-289 showed a relative viability of 1.02. NCI-H2347 was tested, and the relative viability was 1.11. Work on NCI-H650 yielded a relative viability of 0.945. In the case of CAL-12T, the relative viability is reported as 1.15. NCI-H1651 gave a relative viability of 0.844. For EPLC-272H, the relative viability was 0.965. With NCI-H23 the relative viability was 0.578.

Same assay, conditions: first compound 0.03162 µM
LK-2 was tested, and the relative viability was 1.12. Work on NCI-H2126 yielded a relative viability of 0.75. Cell Line H3255 has a relative viability of 0.758. In the case of LOU-NH91, the relative viability is reported as 0.744. NCI-H2170 showed a relative viability of 0.849. NCI-H3122 showed a relative viability of 0.752. With HOP-62 the relative viability was 1.25. Cell Line LU99A has a relative viability of 0.629. Cell Line BEN has a relative viability of 1.08. HARA gave a relative viability of 0.854. For HCC-78, the relative viability was 0.354. For NCI-H441, the relative viability was 0.722. For LCLC-97TM1, the relative viability was 0.309. A-427 showed a relative viability of 1.14. NCI-H460 gave a relative viability of 0.355. Work on NCI-H727 yielded a relative viability of 0.524. With NCI-H1734 the relative viability was 0.822. NCI-H2405 showed a relative viability of 0.801. NCI-H1395 was tested, and the relative viability was 1.14. 201T showed a relative viability of 1.06. For NCI-H1915, the relative viability was 1.17. HCC-827 showed a relative viability of 0.912. LXF-289 gave a relative viability of 1.07. For NCI-H2347, the relative viability was 0.99. NCI-H650 gave a relative viability of 0.977. For CAL-12T, the relative viability was 1.2. NCI-H1651 gave a relative viability of 0.833. Work on EPLC-272H yielded a relative viability of 0.934. In the case of NCI-H23, the relative viability is reported as 0.654.

Same assay, conditions: first compound 0.1 µM
LK-2 gave a relative viability of 0.71. In the case of NCI-H2126, the relative viability is reported as 0.52. Cell Line H3255 has a relative viability of 0.448. Cell Line LOU-NH91 has a relative viability of 0.593. With NCI-H3122 the relative viability was 0.728. With HOP-62 the relative viability was 0.518. LU99A was tested, and the relative viability was 0.331. HARA showed a relative viability of 0.792. HCC-78 gave a relative viability of 0.212. NCI-H441 showed a relative viability of 0.362. Cell Line LCLC-97TM1 has a relative viability of 0.132. For A-427, the relative viability was 0.713. For NCI-H460, the relative viability was 0.272. In the case of NCI-H727, the relative viability is reported as 0.566. Work on NCI-H1734 yielded a relative viability of 0.509. NCI-H2405 was tested, and the relative viability was 0.482. With NCI-H1395 the relative viability was 0.773. Cell Line 201T has a relative viability of 0.921. NCI-H1915 showed a relative viability of 0.967. HCC-827 was tested, and the relative viability was 0.696. In the case of LXF-289, the relative viability is reported as 1.04. NCI-H2347 was tested, and the relative viability was 0.615. For NCI-H650, the relative viability was 0.949. Work on CAL-12T yielded a relative viability of 1.32. Cell Line NCI-H1651 has a relative viability of 0.984. Cell Line EPLC-272H has a relative viability of 0.606. With NCI-H23 the relative viability was 0.358.

Same assay, conditions: first compound 0.3162 µM
Cell Line LK-2 has a relative viability of 0.764. For NCI-H2126, the relative viability was 0.723. Work on H3255 yielded a relative viability of 0.585. LOU-NH91 showed a relative viability of 0.62. Work on NCI-H2170 yielded a relative viability of 0.621. NCI-H3122 was tested, and the relative viability was 0.595. HOP-62 was tested, and the relative viability was 0.663. LU99A showed a relative viability of 0.24. Work on BEN yielded a relative viability of 0.87. With HARA the relative viability was 0.584. Cell Line HCC-78 has a relative viability of 0.213. Work on NCI-H441 yielded a relative viability of 0.16. In the case of LCLC-97TM1, the relative viability is reported as 0.139. With A-427 the relative viability was 0.755. Cell Line NCI-H460 has a relative viability of 0.0559. With NCI-H727 the relative viability was 0.58. NCI-H1734 gave a relative viability of 0.517. In the case of NCI-H2405, the relative viability is reported as 0.582. NCI-H1395 showed a relative viability of 0.798. For 201T, the relative viability was 0.94. Work on NCI-H1915 yielded a relative viability of 0.99. For HCC-827, the relative viability was 0.453. Cell Line LXF-289 has a relative viability of 0.655. Cell Line NCI-H2347 has a relative viability of 0.455. NCI-H650 gave a relative viability of 0.5. In the case of CAL-12T, the relative viability is reported as 0.799. For NCI-H1651, the relative viability was 0.511. EPLC-272H showed a relative viability of 0.931. Work on NCI-H23 yielded a relative viability of 0.364.

Same assay, conditions: first compound 1 µM
LK-2 showed a relative viability of 0.288. NCI-H2126 gave a relative viability of 0.306. For H3255, the relative viability was 0.298. For LOU-NH91, the relative viability was 0.469. Work on NCI-H2170 yielded a relative viability of 0.513. For NCI-H3122, the relative viability was 0.402. Cell Line HOP-62 has a relative viability of 0.294. With LU99A the relative viability was 0.143. Cell Line BEN has a relative viability of 0.852. In the case of HARA, the relative viability is reported as 0.167. HCC-78 was tested, and the relative viability was 0.161. Work on NCI-H441 yielded a relative viability of 0.174. With LCLC-97TM1 the relative viability was 0.107. In the case of A-427, the relative viability is reported as 0.229. NCI-H460 showed a relative viability of 0.0284. For NCI-H727, the relative viability was 0.423. NCI-H1734 gave a relative viability of 0.381. In the case of NCI-H2405, the relative viability is reported as 0.34. NCI-H1395 gave a relative viability of 0.69. Work on 201T yielded a relative viability of 0.691. NCI-H1915 gave a relative viability of 0.631. HCC-827 was tested, and the relative viability was 0.18. LXF-289 showed a relative viability of 0.244. In the case of NCI-H2347, the relative viability is reported as 0.406. NCI-H650 was tested, and the relative viability was 0.24. With CAL-12T the relative viability was 0.306. In the case of NCI-H1651, the relative viability is reported as 0.24. With EPLC-272H the relative viability was 0.539. NCI-H23 gave a relative viability of 0.236.
